In patent US9447051B2, “Diaminopyrimidines and uses thereof” (AbbVie inc., priority 2012, dated 2016) one finds EC50 data, which are given here for 36 molecules.

Structures are written as SMILES. pEC50: −log10 of the molar value.

The first experiment has as its system RSV (Group A, Long Strain). The experiment in a line: Antiviral (RSV) assay: cytopathetic effect (CPE) protection assay in HEp-2 cells, MTT readout. The experiment is classed as cell-based, human respiratory syncytial virus (RSV). The note with it: Table 1, 0.2 MOI RSV, 4 days incubation, protection from CPE. How it is done:
HEp-2 cells and RSV (Group A, Long Strain) were obtained from the American Type Culture Collection (Manassas, Va.). A cytopathetic effect (CPE) protection assay was performed to determine the ability of a compound to protect the cells from viral infection and thus the CPE induced by viral infection. 96-well plates were first seeded with 3×10^3 HEp-2 cells per well in Dulbecco's modified Eagle's medium (DMEM) containing 10% fetal bovine serum (FBS). One day after the cells were seeded, they were preincubated with serial dilutions of compounds prepared in 100 μL assay medium (DMEM mixed with F12 medium at a 1:1 ratio, supplemented with 2% FBS and 1 mM sodium pyruvate) for 1 hour at 37° C. 100 μL of assay medium containing 0.2 multiplicity of infection (MOI) of RSV was then added to each well of cells. In addition to wells containing infected cells incubated with compounds, each plate also contained replicates of two kinds of controls: (1) Virus control contained cells infected with 0.2 MOI of RSV in assay medium, (2) Uninfected cell control contained cells incubated with assay medium only. After 4 days of incubation at 37° C., the viability of cells was assessed using MTT (Thiazolyl blue tetrazolium bromide, Sigma). A stock solution of MTT, at a concentration of 4 mg/mL in phosphate-buffered saline, was added to all wells at 25 μL per well. Plates were further incubated for 4 hours, and each well was then treated with 50 μL of a solution containing 20% sodium dodecyl sulfate (SDS) and 0.02 N HCl. After an overnight incubation, the plates were measured on a BioTek® microtiter plate reader at wavelengths of 570 nm and 650 nm. The MTT detection is based on the fact that viable (uninfected) cells can reduce the tetrazolium salts into colored formazan products, which can then be quantitated by spectrometry. […] Compounds were tested to determine both their antiviral and toxicity to determine their therapeutic window. Determination of the EC50 and TD50 of these active compounds were repeated one additional time to confirm the window.
For the molecule `Cc1nc(NCc2ccccn2)nc(NC2CCC(C)(O)CC2)c1C` (stereo not drawn) [Example 37, cis-4-({5,6-dimethyl-2-[(pyridin-2-ylmethyl)amino]pyrimidin-4-yl}amino)-1-methylcyclohexanol], the negative-log EC50 (pEC50) (in general, the negative decadic logarithm of the EC50, by convention in mol/L) was 6.44.
Consider `Cc1nc(NCc2ccccn2)nc(NC2CCC(C)(O)CC2)c1C` (stereo not drawn) [Example 38, trans-4-({5,6-dimethyl-2-[(pyridin-2-ylmethyl)amino]pyrimidin-4-yl}amino)-1-methylcyclohexanol], for which the pEC50 is 5.62. Compared with the last molecule, the pEC50 is 0.82 log units lower.

Staying with this experiment, now noted: human respiratory syncytial virus, HEp-2, 96 h, Table 1, 0.2 MOI RSV, 4 days incubation, protection from CPE.
The molecule `Cc1nc(NCc2ccccn2)nc(Nc2cccc(F)c2C)c1C` [Example 76, N^4-(3-fluoro-2-methylphenyl)-5,6-dimethyl-N^2-(pyridin-2-ylmethyl)pyrimidine-2,4-diamine] gave a pEC50 of 7.60.
On the same count and under the same terms, to `Cc1nc(NCc2ccccn2)nc(NC2Cc3ccccc3C2)c1C` [Example 46, N^4-(2,3-dihydro-1H-inden-2-yl)-5,6-dimethyl-N^2-(pyridin-2-ylmethyl)pyrimidine-2,4-diamine] belongs 6.49.
`Cc1nc(NCc2cccs2)nc(NC2CCCCC2)c1C` [Example 22, N^4-cyclohexyl-5,6-dimethyl-N^2-(2-thienylmethyl)pyrimidine-2,4-diamine] showed a pEC50 of 7.16.
Consider `Cc1ccc(CNc2nc(C)c(C)c(NC3CCCCC3)n2)nc1` [Example 86, N^4-cyclohexyl-5,6-dimethyl-N^2-[(5-methylpyridin-2-yl)methyl]pyrimidine-2,4-diamine], for which the pEC50 is 5.82.
On the same count and under the same terms, the same measure for `Cc1nc(NCc2cccnc2)nc(NC2CCCCC2)c1C` [Example 6, N^4-cyclohexyl-5,6-dimethyl-N^2-(pyridin-3-ylmethyl)pyrimidine-2,4-diamine]: 6.62; for `Cc1cccc(CNc2nc(C)c(C)c(NC3CCCCC3)n2)n1` [Example 19, N^4-cyclohexyl-5,6-dimethyl-N^2-[(6-methylpyridin-2-yl)methyl]pyrimidine-2,4-diamine]: 6.23.
As to `Cc1nc(NCc2ccccn2)nc(Nc2c(C(C)C)cccc2C(C)C)c1C` [Example 84, N^4-(2,6-diisopropylphenyl)-5,6-dimethyl-N^2-(pyridin-2-ylmethyl)pyrimidine-2,4-diamine], the pEC50 was 7.80.
Still for that read-out and setting: to `Cc1nc(NCc2ccccn2)nc(Nc2ccc(Cl)cc2)c1C` [Example 62, N^4-(4-chlorophenyl)-5,6-dimethyl-N^2-(pyridin-2-ylmethyl)pyrimidine-2,4-diamine] belongs 7.03; to `Cc1nc(NCc2ccc(OC(F)(F)F)cc2)nc(NC2CCCCC2)c1C` [Example 10, N^4-cyclohexyl-5,6-dimethyl-N^2-[4-(trifluoromethoxy)benzyl]pyrimidine-2,4-diamine], under 5.82; to `Cc1nc(NCc2ccccn2)nc(Nc2ccc(OC(F)(F)F)cc2)c1C` [Example 56, 5,6-dimethyl-N^2-(pyridin-2-ylmethyl)-N^4-[4-(trifluoromethoxy)phenyl]pyrimidine-2,4-diamine], 6.40.
On the same count and under the same terms, the same measure for `Cc1nc(NC(C)c2ccccn2)nc(NC2CCCCC2)c1C` (stereo not drawn) [Example 87, N^4-cyclohexyl-5,6-dimethyl-N^2-[1-(pyridin-2-yl)ethyl]pyrimidine-2,4-diamine]: under 4.49; for `Cc1nc(NCc2ccccn2)nc(NC2CCCc3ccccc32)c1C` (stereo not drawn) [Example 35, 5,6-dimethyl-N^2-(pyridin-2-ylmethyl)-N^4-(1,2,3,4-tetrahydronaphthalen-1-yl)pyrimidine-2,4-diamine]: 6.92; for `Cc1nc(NCc2ccccn2)nc(Nc2ccc(F)cc2)c1C` [Example 50, N^4-(4-fluorophenyl)-5,6-dimethyl-N^2-(pyridin-2-ylmethyl)pyrimidine-2,4-diamine]: 7.00.
For the molecule `Cc1cccc(F)c1Nc1nc(NCc2ccccn2)nc(C)c1C` [Example 72, N^4-(2-fluoro-6-methylphenyl)-5,6-dimethyl-N^2-(pyridin-2-ylmethyl)pyrimidine-2,4-diamine], the pEC50 is 7.11.
In turn, `Cc1nc(NCc2ccccn2)nc(Nc2cc(F)ccc2F)c1C` [Example 60, N^4-(2,5-difluorophenyl)-5,6-dimethyl-N^2-(pyridin-2-ylmethyl)pyrimidine-2,4-diamine] showed a pEC50 of 7.00.
`Cc1nc(NCc2ccccn2)nc(NC2CCOCC2)c1C` [Example 30, 5,6-dimethyl-N^2-(pyridin-2-ylmethyl)-N^4-(tetrahydro-2H-pyran-4-yl)pyrimidine-2,4-diamine] showed a pEC50 of 5.96.
Turning to `Cc1ccc(Nc2nc(NCc3ccccn3)nc(C)c2C)cc1` [Example 63, 5,6-dimethyl-N^4-(4-methylphenyl)-N^2-(pyridin-2-ylmethyl)pyrimidine-2,4-diamine], the pEC50 was 7.28.
In turn, `CCc1c(C)nc(NCc2ccccn2)nc1Nc1ccc(F)cc1` [Example 89, 5-ethyl-N^4-(4-fluorophenyl)-6-methyl-N^2-(pyridin-2-ylmethyl)pyrimidine-2,4-diamine] had a pEC50 of 6.32.
`Cc1nc(NCc2ccc(C(C)C)cc2)nc(NC2CCCCC2)c1C` [Example 11, N^4-cyclohexyl-N^2-(4-isopropylbenzyl)-5,6-dimethylpyrimidine-2,4-diamine] showed a pEC50 of under 5.70.
On the same count and under the same terms, the same measure for `Cc1nc(NCc2ccccn2)nc(N(C)C2CCCCC2)c1C` [Example 77, N^4-cyclohexyl-N^4,5,6-trimethyl-N^2-(pyridin-2-ylmethyl)pyrimidine-2,4-diamine]: 5.92; for `Cc1nc(NCc2ccccn2)nc(Nc2ccc(F)c(F)c2)c1C` [Example 58, N^4-(3,4-difluorophenyl)-5,6-dimethyl-N^2-(pyridin-2-ylmethyl)pyrimidine-2,4-diamine]: 7.20.
The molecule `Cc1nc(NCc2ccccn2)nc(Nc2c(F)cccc2F)c1C` [Example 55, N^4-(2,6-difluorophenyl)-5,6-dimethyl-N^2-(pyridin-2-ylmethyl)pyrimidine-2,4-diamine] showed a negative-log EC50 (pEC50) of 6.85.
Molecule `Cc1nc(NCc2ccccn2)nc(NC2CCCCC2O)c1C` (stereo not drawn) [Example 42, 2-({5,6-dimethyl-2-[(pyridin-2-ylmethyl)amino]pyrimidin-4-yl}amino)cyclohexanol] had a pEC50 of 6.52.
The molecule `Cc1nc(NCc2ccccn2)nc(NC2CCC(F)(F)C2)c1C` (stereo not drawn) [Example 78, N^4-(3,3-difluorocyclopentyl)-5,6-dimethyl-N^2-(pyridin-2-ylmethyl)pyrimidine-2,4-diamine] showed a pEC50 of 6.72.
The molecule `Cc1nc(NCc2ccc(C(F)(F)F)cn2)nc(NC2CCCCC2)c1C` [Example 20, N^4-cyclohexyl-5,6-dimethyl-N^2-{[5-(trifluoromethyl)pyridin-2-yl]methyl}pyrimidine-2,4-diamine] had a pEC50 of under 5.06.
On to `Cc1nc(NCc2ccc(C(F)(F)F)cc2)nc(NC2CCCCC2)c1C` [Example 12, N^4-cyclohexyl-5,6-dimethyl-N^2-[4-(trifluoromethyl)benzyl]pyrimidine-2,4-diamine], for which the pEC50 is under 6.02.
`Cc1nc(NCc2ccccn2)nc(NC2CCCC(O)C2)c1C` (stereo not drawn) [Example 85, 3-({5,6-dimethyl-2-[(pyridin-2-ylmethyl)amino]pyrimidin-4-yl}amino)cyclohexanol] showed a pEC50 of 5.86.
The molecule `Cc1nc(NCc2ccccn2)nc(NC2CCCC(F)(F)C2)c1C` (stereo not drawn) [Example 80, N^4-(3,3-difluorocyclohexyl)-5,6-dimethyl-N^2-(pyridin-2-ylmethyl)pyrimidine-2,4-diamine] gave a pEC50 of 6.72.
Regarding `Cc1nc(NCc2ccccn2)nc(Nc2ccccc2OC(F)(F)F)c1C` [Example 59, 5,6-dimethyl-N^2-(pyridin-2-ylmethyl)-N^4-[2-(trifluoromethoxy)phenyl]pyrimidine-2,4-diamine], the pEC50 was 7.52.
The same measure, in the same setting: the same measure for `Cc1nc(NCc2ccccn2)nc(NCC2CCCCC2)c1C` [Example 92, N^4-(cyclohexylmethyl)-5,6-dimethyl-N^2-(pyridin-2-ylmethyl)pyrimidine-2,4-diamine]: 5.96; for `Cc1nc(NCc2ccccc2)nc(NC2CCCCC2)c1C` [Example 5, N^2-benzyl-N^4-cyclohexyl-5,6-dimethylpyrimidine-2,4-diamine]: 6.62; for `Cc1nc(NCc2ccccn2)nc(Nc2cccc(C(F)(F)F)c2)c1C` [Example 54, 5,6-dimethyl-N^2-(pyridin-2-ylmethyl)-N^4-[3-(trifluoromethyl)phenyl]pyrimidine-2,4-diamine]: 7.60.
`Cc1nc(NCc2ccccn2)nc(Nc2cc(F)cc(F)c2)c1C` [Example 64, N^4-(3,5-difluorophenyl)-5,6-dimethyl-N^2-(pyridin-2-ylmethyl)pyrimidine-2,4-diamine] gave a pEC50 of 7.40.
`Cc1nc(NCc2ccccn2)nc(NCC2CCCO2)c1C` (stereo not drawn) [Example 91, 5,6-dimethyl-N^2-(pyridin-2-ylmethyl)-N^4-(tetrahydrofuran-2-ylmethyl)pyrimidine-2,4-diamine] gave a pEC50 of 5.66.
